Results on seven compounds are retold here after ChEMBL document CHEMBL4396963, “An exploration of solvent-front region high affinity moiety leading to novel potent ALK & ROS1 dual inhibitors with mutant-combating effects” (Bioorg Med Chem, 2019).

The source made the active and inactive calls. The calls are words filed in the database; no cut-off is given here. Some results are limits rather than exact numbers.

As a reminder, the IC50 is the concentration that inhibits the measured activity by half.

Assay [1] concerns HCC78. Description: Antiproliferative activity against human HCC78 cells assessed as reduction in cell viability incubated for 72 hrs by MTT assay. Type of assay: functional, cell-based. The settings on record: HCC78, 72 h.
Assay [2] deals with KARPAS-299. The assay can be described thus: Antiproliferative activity against human KARPAS299 cells assessed as reduction in cell viability incubated for 72 hrs by MTT assay. Format: functional, cell-based. The conditions noted are these: KARPAS-299, 72 h. On the technique in general: Formazan colour is commonly taken as a measure of viable cells.
Assay [3] addresses Proto-oncogene tyrosine-protein kinase ROS (Homo sapiens, UniProt P08922). The assay can be described thus: Inhibition of recombinant human N-terminal GST-tagged ROS (1883 to 2347 residues) cytoplasmic domain expressed in baculovirus expression system using IRS1 as substrate incubated for 1 hr by mobility shift assay.
The target in assay [4] is Epidermal growth factor receptor (Homo sapiens, UniProt P00533).
Description: Inhibition of recombinant human N-terminal GST-tagged EGFR (669 to 1210 residues) cytoplasmic domain expressed in baculovirus expression system using Srctide as substrate incubated for 1 hr by mobility shift assay
The test system of assay [5] is A549. The assay can be described thus: cells. The settings on record: Homo sapiens, A549, 72 h.
In assay [6] the test system is HT-29. The assay can be described thus: cells. The conditions noted are these: Homo sapiens, HT-29, 72 h.
Description: Antiproliferative activity against human HT-29 cells assessed as reduction in cell viability incubated for 72 hrs by MTT assay
Assay [7] concerns the target ALK tyrosine kinase receptor (Homo sapiens, UniProt Q9UM73). Description: Inhibition of recombinant human N-terminal GST-tagged ALK (1058 to 1620 residues) cytoplasmic domain expressed in baculovirus expression system using srctide as substrate incubated for 1 hr by mobility shift assay.
Assay [8] deals with ALK tyrosine kinase receptor (Homo sapiens, UniProt Q9UM73, G1202R). Description: Inhibition of recombinant human N-terminal GST-tagged ALK (1058 to 1620 residues) cytoplasmic domain G1202R mutant using srctide as substrate incubated for 1 hr by mobility shift assay.
Assay [9] addresses ALK tyrosine kinase receptor (Homo sapiens, UniProt Q9UM73, L1196M). The assay can be described thus: Inhibition of recombinant human N-terminal GST-tagged ALK (1058 to 1620 residues) cytoplasmic domain L1196M mutant expressed in baculovirus expression system using srctide as substrate incubated for 1 hr by mobility shift assay.
In assay [10] the target is Hepatocyte growth factor receptor (Homo sapiens, UniProt P08581). The assay can be described thus: Inhibition of recombinant human N-terminal GST-tagged MET (956 to 1390 residues) cytoplasmic domain expressed in baculovirus expression system using Srctide as substrate incubated for 1 hr by mobility shift assay.
Assay [11] relates to A549. Description: Antiproliferative activity against human A549 cells harbouring […] mutant assessed as reduction in cell viability incubated for 72 hrs by MTT assay. Type of assay: functional, cell-based. The settings on record: A549, 72 h.
Assay [12] deals with NCI-H2228. Description: Antiproliferative activity against human NCI-H2228 cells assessed as reduction in cell viability incubated for 72 hrs by MTT assay. Format: functional, cell-based. The conditions noted are these: NCI-H2228, 72 h.
Assay [13] has as its system NCI-H2228. Description: Induction of apoptosis in human NCI-H2228 cells assessed as increase in nuclear shrinkage incubated for 48 hrs by AO/EB staining based fluorescence microscopy. Format: functional, cell-based.
Assay [14] relates to NCI-H2228. The assay can be described thus: Induction of apoptosis in human NCI-H2228 cells assessed as increase in nuclear shrinkage at 30 nM incubated for 48 hrs by AO/EB staining based fluorescence microscopy. Type of assay: functional, cell-based.
Assay [15] concerns NCI-H2228. The assay can be described thus: Induction of apoptosis in human NCI-H2228 cells assessed as increase in cell membrane damage at 30 nM incubated for 48 hrs by Hoechst 33258 staining based fluorescence microscopy. Type of assay: functional.
Assay [16] has as its system NCI-H2228. Description: Induction of apoptosis in human NCI-H2228 cells assessed as increase in nuclei damage incubated for 48 hrs by Hoechst 33258 staining based fluorescence microscopy. Type of assay: functional, cell-based.
Assay [17] has as its system NCI-H2228. Description: Induction of apoptosis in human NCI-H2228 cells assessed as increase in nuclei damage at 30 nM incubated for 48 hrs by Hoechst 33258 staining based fluorescence microscopy. Type of assay: functional, cell-based.
The subject of assay [18] is NCI-H2228. The assay can be described thus: Induction of apoptosis in human NCI-H2228 cells assessed as increase in nuclear fragmentation incubated for 48 hrs by AO/EB staining based fluorescence microscopy. Type of assay: functional, cell-based.
Assay [19] deals with NCI-H2228. The assay can be described thus: Induction of apoptosis in human NCI-H2228 cells assessed as increase in cell membrane damage incubated for 48 hrs by Hoechst 33258 staining based fluorescence microscopy. Format: functional.
Assay [20] has as its system A549. The assay can be described thus: Potency index, ratio of IC50 of ceritinib to IC50 of compound for antiproliferative activity against human A549 cells harbouring […] mutant assessed as reduction in cell viability incubated for 72 hrs by MTT assay. Format: functional.
Assay [21] has as its system NCI-H2228. Description: Induction of apoptosis in human NCI-H2228 cells assessed as increase in nuclear fragmentation at 30 nM incubated for 48 hrs by AO/EB staining based fluorescence microscopy. Type of assay: functional, cell-based.

Epidermal growth factor receptor, sequence (P00533 whole entry): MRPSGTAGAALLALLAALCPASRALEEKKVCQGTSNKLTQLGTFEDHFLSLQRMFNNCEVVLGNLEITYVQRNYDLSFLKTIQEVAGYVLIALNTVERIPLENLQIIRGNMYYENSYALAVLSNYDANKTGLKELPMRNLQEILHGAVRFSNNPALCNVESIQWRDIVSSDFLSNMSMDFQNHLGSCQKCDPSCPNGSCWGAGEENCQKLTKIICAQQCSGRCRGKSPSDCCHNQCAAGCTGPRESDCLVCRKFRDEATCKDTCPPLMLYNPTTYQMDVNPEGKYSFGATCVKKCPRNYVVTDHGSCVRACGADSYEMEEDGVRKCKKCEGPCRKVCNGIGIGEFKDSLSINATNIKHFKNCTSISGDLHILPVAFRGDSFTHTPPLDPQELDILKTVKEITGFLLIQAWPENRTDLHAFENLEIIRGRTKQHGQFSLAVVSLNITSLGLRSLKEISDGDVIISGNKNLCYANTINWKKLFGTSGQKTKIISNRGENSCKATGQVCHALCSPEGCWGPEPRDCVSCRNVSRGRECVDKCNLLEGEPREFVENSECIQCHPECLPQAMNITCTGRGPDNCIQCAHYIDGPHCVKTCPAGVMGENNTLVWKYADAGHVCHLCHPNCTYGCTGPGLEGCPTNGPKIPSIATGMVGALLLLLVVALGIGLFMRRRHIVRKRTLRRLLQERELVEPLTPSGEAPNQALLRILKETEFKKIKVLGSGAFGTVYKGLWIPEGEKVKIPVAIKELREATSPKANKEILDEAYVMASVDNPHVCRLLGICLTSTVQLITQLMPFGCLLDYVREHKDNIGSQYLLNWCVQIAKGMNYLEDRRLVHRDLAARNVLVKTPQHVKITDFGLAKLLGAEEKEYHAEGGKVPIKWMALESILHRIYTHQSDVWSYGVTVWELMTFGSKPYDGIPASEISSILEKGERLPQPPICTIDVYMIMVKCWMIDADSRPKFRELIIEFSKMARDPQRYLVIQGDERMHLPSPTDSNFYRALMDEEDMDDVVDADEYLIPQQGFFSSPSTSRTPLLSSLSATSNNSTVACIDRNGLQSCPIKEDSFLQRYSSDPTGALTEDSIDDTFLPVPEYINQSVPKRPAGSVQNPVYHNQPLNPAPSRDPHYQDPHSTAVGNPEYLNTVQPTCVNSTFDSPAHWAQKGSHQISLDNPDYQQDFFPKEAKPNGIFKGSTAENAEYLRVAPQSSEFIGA
Hepatocyte growth factor receptor, sequence (P08581 whole entry, the tested form may be a part): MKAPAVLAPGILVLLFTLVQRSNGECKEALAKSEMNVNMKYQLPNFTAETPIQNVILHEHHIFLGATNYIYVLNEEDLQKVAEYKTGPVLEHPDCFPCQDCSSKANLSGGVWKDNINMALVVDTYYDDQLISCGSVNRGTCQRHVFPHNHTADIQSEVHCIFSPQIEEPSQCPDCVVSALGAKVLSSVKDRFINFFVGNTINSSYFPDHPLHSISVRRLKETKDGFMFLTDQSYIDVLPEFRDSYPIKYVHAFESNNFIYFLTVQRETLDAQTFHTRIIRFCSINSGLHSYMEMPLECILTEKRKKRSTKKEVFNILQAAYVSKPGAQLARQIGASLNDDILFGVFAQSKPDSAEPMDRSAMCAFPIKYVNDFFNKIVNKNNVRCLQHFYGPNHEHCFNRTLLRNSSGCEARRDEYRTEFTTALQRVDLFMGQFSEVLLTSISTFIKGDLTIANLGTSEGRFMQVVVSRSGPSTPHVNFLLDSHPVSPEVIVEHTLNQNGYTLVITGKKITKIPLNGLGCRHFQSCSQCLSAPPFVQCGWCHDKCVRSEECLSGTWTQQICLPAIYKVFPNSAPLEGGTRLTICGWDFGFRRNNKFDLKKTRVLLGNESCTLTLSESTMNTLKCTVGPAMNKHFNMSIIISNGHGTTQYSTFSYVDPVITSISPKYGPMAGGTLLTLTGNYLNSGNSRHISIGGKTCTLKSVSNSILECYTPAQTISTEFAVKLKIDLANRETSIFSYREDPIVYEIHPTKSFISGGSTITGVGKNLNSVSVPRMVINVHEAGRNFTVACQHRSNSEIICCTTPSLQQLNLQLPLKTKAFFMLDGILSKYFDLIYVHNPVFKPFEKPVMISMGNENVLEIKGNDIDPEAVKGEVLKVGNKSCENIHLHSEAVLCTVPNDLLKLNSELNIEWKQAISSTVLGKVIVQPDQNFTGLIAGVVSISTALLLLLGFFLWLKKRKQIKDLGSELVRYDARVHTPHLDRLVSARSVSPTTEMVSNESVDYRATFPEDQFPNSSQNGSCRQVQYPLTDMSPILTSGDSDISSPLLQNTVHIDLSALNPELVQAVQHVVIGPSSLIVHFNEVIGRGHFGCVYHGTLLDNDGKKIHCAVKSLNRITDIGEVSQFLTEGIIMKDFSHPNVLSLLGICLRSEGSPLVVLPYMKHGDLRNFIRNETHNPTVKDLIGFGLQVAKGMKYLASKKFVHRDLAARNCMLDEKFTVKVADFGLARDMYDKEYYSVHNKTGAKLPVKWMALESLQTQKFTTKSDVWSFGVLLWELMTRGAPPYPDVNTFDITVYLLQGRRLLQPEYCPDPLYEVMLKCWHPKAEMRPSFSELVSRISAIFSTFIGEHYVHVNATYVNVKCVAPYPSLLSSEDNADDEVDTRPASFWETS
ALK tyrosine kinase receptor (Homo sapiens, UniProt Q9UM73, L1196M), sequence (Q9UM73 19-1620 L1196M limits assumed): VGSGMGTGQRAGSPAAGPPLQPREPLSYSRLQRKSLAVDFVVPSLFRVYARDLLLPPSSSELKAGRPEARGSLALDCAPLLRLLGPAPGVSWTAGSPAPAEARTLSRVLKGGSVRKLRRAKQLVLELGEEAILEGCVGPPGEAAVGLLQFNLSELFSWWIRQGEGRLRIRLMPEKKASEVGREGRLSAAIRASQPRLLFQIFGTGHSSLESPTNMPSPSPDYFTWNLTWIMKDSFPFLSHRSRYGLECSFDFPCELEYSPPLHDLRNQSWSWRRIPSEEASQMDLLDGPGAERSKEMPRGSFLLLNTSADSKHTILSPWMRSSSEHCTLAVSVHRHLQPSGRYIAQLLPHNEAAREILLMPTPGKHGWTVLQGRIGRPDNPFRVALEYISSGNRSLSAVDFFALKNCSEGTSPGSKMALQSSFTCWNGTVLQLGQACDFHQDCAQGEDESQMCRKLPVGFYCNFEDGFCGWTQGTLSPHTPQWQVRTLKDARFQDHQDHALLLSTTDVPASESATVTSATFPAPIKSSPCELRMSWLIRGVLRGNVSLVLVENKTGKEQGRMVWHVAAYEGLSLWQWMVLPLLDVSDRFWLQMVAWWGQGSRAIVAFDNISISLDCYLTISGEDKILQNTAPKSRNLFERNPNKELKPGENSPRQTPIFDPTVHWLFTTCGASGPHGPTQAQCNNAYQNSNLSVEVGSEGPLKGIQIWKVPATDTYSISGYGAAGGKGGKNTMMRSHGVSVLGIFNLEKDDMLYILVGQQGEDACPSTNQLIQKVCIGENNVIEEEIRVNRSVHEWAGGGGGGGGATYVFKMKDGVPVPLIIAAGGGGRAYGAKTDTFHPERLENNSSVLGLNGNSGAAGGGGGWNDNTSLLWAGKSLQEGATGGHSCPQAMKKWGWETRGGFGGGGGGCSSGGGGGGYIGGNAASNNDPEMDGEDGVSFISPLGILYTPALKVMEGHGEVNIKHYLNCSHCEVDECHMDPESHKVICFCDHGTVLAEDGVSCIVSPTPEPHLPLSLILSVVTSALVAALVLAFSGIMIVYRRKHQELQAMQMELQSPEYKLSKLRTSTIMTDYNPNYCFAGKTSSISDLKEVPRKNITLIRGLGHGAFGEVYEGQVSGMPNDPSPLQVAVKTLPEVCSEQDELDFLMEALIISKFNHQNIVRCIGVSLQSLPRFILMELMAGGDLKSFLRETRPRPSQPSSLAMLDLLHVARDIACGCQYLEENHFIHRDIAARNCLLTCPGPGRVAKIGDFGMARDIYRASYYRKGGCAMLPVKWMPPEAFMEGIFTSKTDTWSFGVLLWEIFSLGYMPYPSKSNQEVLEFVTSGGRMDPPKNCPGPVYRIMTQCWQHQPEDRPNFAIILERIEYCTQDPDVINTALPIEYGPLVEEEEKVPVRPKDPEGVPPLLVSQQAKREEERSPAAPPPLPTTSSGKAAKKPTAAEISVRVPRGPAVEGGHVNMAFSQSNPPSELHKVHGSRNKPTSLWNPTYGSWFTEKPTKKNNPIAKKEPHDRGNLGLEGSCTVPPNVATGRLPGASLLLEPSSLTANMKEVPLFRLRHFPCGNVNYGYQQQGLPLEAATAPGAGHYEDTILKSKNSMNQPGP
ALK tyrosine kinase receptor (Homo sapiens, UniProt Q9UM73, G1202R), sequence (Q9UM73 19-1620 G1202R limits assumed): as the sequence (Q9UM73 19-1620 L1196M limits assumed) above, with M1178L, G1184R counted along it

In the case of `COc1cc(NC(=O)C2CC2)ccc1Nc1ncc(Cl)c(Nc2ccccc2NC(C)=O)n1`, the IC50 in assay [1] was 230 nM; in assay [2], 1060 nM; in [3], 3.2 nM; in assay [4], 617 nM; in assay [5] it was greater than 10000 nM; in assay [6], 2960 nM. Moreover, the half-maximal inhibitory concentration (IC50) in assay [7] was 4.1 nM; in [8] it was 11.5 nM; in assay [9], 6.6 nM; in assay [10] it was greater than 1000 nM; in assay [11], 930 nM; in assay [12] it was 490 nM.

On to `COc1cc(NC(=O)NC2CCC(=O)CC2)ccc1Nc1ncc(Cl)c(Nc2ccccc2NC(C)=O)n1`, for which the IC50 in assay [1] is 67 nM; in assay [2], 77 nM; in assay [3], 3.7 nM; in [4] it was greater than 1000 nM; in assay [5] it was 1720 nM; in assay [6] it was greater than 10000 nM. In addition, the IC50 is 2.5 nM in [7]; 9.3 nM in assay [8]; 3.9 nM in assay [9]; 325 nM in [10]; 190 nM in assay [11]; 550 nM in assay [12].

Consider `COc1cc(NC(=O)N2CCOCC2)ccc1Nc1ncc(Cl)c(Nc2ccccc2NC(C)=O)n1`, for which the IC50 is 41 nM in assay [1]; 27 nM in assay [2]; 0.73 nM in [3]; greater than 1000 nM in assay [4]; 1610 nM in assay [5]; greater than 10000 nM in [6]. Further, the half-inhibitory concentration (IC50) in assay [7] is 2.1 nM; in [8] it was 4.3 nM; in assay [9], 0.91 nM; in [10] it was greater than 1000 nM; in assay [11], 30 nM; in assay [12], 56 nM. The Activity result in [13], in assay [16], in assay [18] and in assay [19] was “Dose-dependent effect” in each case. The outcome in [14], in [15], in assay [17] and in assay [21] was Active. Also, the “Ratio IC50” value in assay [20] is reported as 16.5.

For `COc1cc(NC(=O)N2CCN(CCO)CC2)ccc1Nc1ncc(Cl)c(Nc2ccccc2NC(C)=O)n1`, the IC50 in assay [1] is 130 nM; in [2], 93 nM; in assay [3] it was 1.7 nM; in assay [4], greater than 1000 nM; in assay [5], greater than 10000 nM; in assay [6], 4030 nM. Further, the IC50 is 6.3 nM in [7]; 6.3 nM in [8]; 2.7 nM in assay [9]; greater than 1000 nM in [10]; 270 nM in [11]; 260 nM in assay [12].

Consider `COc1cc(N2CCCC2=O)ccc1Nc1ncc(Cl)c(Nc2ccccc2NC(C)=O)n1`, for which the IC50 is 97 nM in assay [1]; 220 nM in assay [2]; 4.4 nM in [3]; greater than 1000 nM in assay [4]; 4130 nM in assay [5]; 1530 nM in assay [6]. Further, the IC50 in [7] was found to be 6.2 nM; in assay [8], 15.7 nM; in assay [9], 2.9 nM; in assay [10], 532 nM; in [11], 410 nM; in assay [12] it was 220 nM.

Consider `COc1cc(NC(=O)N2CCCC2)ccc1Nc1ncc(Cl)c(Nc2ccccc2NC(C)=O)n1`, for which the 50% inhibitory concentration (IC50) in [1] is 870 nM; in [2], 160 nM; in assay [3], 0.97 nM; in [4], greater than 1000 nM; in assay [5], greater than 10000 nM; in [6], 1270 nM. Besides, the IC50 in [7] is 5.1 nM; in assay [8], 7.1 nM; in assay [9], 3.7 nM; in assay [10] it was greater than 1000 nM; in [11], 360 nM; in [12] it was 79 nM.

Take `COc1cc(N2CCCNC2=O)ccc1Nc1ncc(Cl)c(Nc2ccccc2NC(C)=O)n1`: the IC50 in assay [1] is 89 nM; in [2] it was 100 nM; in assay [3] it was 5.3 nM; in [4] it was greater than 1000 nM; in [5], greater than 10000 nM; in assay [6], 6070 nM. For the same compound, the IC50 in [7] is 4.7 nM; in assay [8], 10.2 nM; in assay [9], 5.1 nM; in [10], greater than 1000 nM; in assay [11], 170 nM; in assay [12], 220 nM.
